Reference: patent publication US20230173029A1, “TREATMENT OF CARDIAC REMODELLING” (UNIVERSITETET I OSLO, priority 2020, published 2023)

Assays:
[1] = test system: Dahl salt-sensitive (Dahl/SS) male rats; test: Autopsy: body weight, heart weight and heart weight to body weight ratio in hypertensive Dahl/SS rats; type: in vivo, rat; settings: for HW (heart weight) / HW/BW: HT Dahl/SS rats on high salt diet, at 6 weeks, mean ± SEM
Procedure: (§1) A total of 29 adult Dahl salt-sensitive (Dahl/SS) male rats with an initial weight of 150 to 200 g were included in the study. Rats were purchased from Charles River Laboratories (USA) and housed in a room with a 12/12-hour light cycle, a temperature of 21° C., and a humidity of 55%. Rats were maintained on a normal salt diet up to seven weeks of age. Twenty-two Dahl/SS were then randomly switched to a high salt diet for 6 weeks to induce hypertension, whilst 7 rats were kept normotensive (NT) on normal salt diet. Drinking water and food was provided ad libitum.
After 2 weeks of high salt diet, 15 hypertensive (HT) rats were started on treatment with proANP31-67. Rats treated with proANP31-67 received one of two dosages: 50 ng/kg/day (n=8) or 100 ng/kg/day (n=7). A total of 14 rats received only vehicle: control rats on a normal salt diet (n=7); and HT rats on a high salt diet (n=7). Rats were randomly assigned to the 3 groups (i.e. control normal salt; high salt untreated; high salt plus treatment).
Drug or vehicle was delivered via Alzet osmotic mini-pumps (Model 2004; mean pumping rate […], mean fill volume […]) implanted subcutaneously (as instructed by the manufacturer) for 28 days. Animals were treated with buprenorphine (0.05 mg/kg s.c.) as analgesic 30 minutes before and up to 1 day following implantation of pumps.
Experiments were performed as described above in Example 1, using a group of 8 Dahl/SS rats which, at 7 weeks of age, were switched to a high salt diet as described above. After 2 weeks of high salt diet, this group was started on proANP31-67 treatment. The rats were administered proANP31-67 at a renal sub-therapeutic dosage of 25 ng/kg/day.

[2] = test system: Dahl salt-sensitive (Dahl/SS) male rats; test: Histochemistry of left ventricle collagen deposition (Masson's trichrome) and collagen cross-linking (Picrosirius Red); type: in vivo, rat; settings: HT Dahl/SS rats, 50 or 100 ng/kg/day s.c. (pooled), not significant, FIG. 2
Procedure: as §1
(§2) After 2 weeks of high salt diet, 15 hypertensive (HT) rats were started on treatment with proANP31-67. […]
Hearts were excised, rinsed in PBS, quickly blotted on gauze, and then fixed in 10% formalin for a minimum of 24 hr. […] Stained sections were scanned (20× magnification) with AxioScan Z1 (Carl Zeiss), to obtain whole cross-sections for collagen quantification. Total fibrosis area (%) and perivascular fibrosis (ratio of the area of fibrosis surrounding the vessel wall to the lumen area) were quantified using ZEN2 blue edition (Zeiss, Jena, Germany). […] The degree of cross-linked collagen was calculated as the ratio between cross-linked collagen and total collagen. All histological quantifications were independently performed by three trained researchers blinded to rat groups.

SMAD2 = test: Western blot of nuclear phosphorylated SMAD2 in left ventricle tissue; type: in vivo, rat; settings: HT Dahl/SS rats, 50 or 100 ng/kg/day s.c. (pooled), FIG. 2E
Procedure: as §1, §2
Enriched nuclear protein fraction from left ventricle tissue was isolated using Compartment Protein Extraction Kit (Merck Millipore, Cat. #2145), according to the manufacturer's specifications. Protein concentration was measured by BCA assay kit (Thermo Fisher Scientific, Cat. #23225). […] Membranes were analysed with rabbit anti-SMAD2/3 (1:1000, Cell Signaling Technology, Cat. #8685) and rabbit anti-phospho-SMAD2 (Ser465/467) (1:500, Cell Signaling Technology, Cat. #3108). The membranes were developed using the ECL system (Pierce Protein Research Products) and ChemiDoc XRS (Bio-Rad), and quantified using Image Lab™ software (version 6.0.1, Bio-Rad).

[3] = test system: rat neonatal cardiomyocytes; test: In vitro [3H]leucine incorporation in ANGII-stimulated neonatal cardiomyocytes; type: cell-based; settings: 24 h
Procedure: Primary cultures of rat cardiomyocyte cells were prepared as previously described (Larsen et al., Cardiovascular Research 80(1): 47-54, 2008). In brief, hearts from 1-3 day old Wistar rats (Taconic), were isolated by […] and pancreatin digestion. Cardiomyocytes were separated from noncardiomyocytes by differential attachment to uncoated culture flasks (90151; Techno Plastic Products). Cardiomyocytes were allowed to attach to 6- or 12-well culture plates (Corning International, Corning, N.Y.) coated with gelatine/fibronectin (G-1890/F1141; Sigma, St. Louis, Mo.) overnight in plating medium (2 or 1 ml) at a density of 2.5×10^5 cells/ml medium [DMEM (41965; GIBCO-BRL, Invitrogen) supplemented with penicillin/streptomycin/glutamine (G6784; Sigma), medium 199 (31150; GIBCO-BRL), HEPES (15630; GIBCO-BRL), horse serum (14-703E; Bio-Whittaker, Lonza), and fetal calf serum (14-701E; Bio-Whittaker)]. […]
5 μCi/ml [3H]leucine (American Radiolabeled Chemicals) were added at the same time as ANG II and the cells were washed six times in 95% EtOH before being harvested in 0.2 M NaOH 24 h after stimulation, as previously described (Halvorsen et al., Journal of Lipid Research 39(4): 901-912, 1998). […] [3H]leucine incorporation was quantified by measuring counts per minute in duplicates from each sample with the Wallac Winspectral 1414 liquid scintillation counter (PerkinElmer). […]

[4] = 50 or 100 ng/kg/day s.c. (pooled) for 28 days

proANP31-67: Human proANP31-67, linear peptide fragment of proANP consisting of SEQ ID NO: 1; also known as vessel dilator, VSDL (EVVPPQVLSEPNEEAGAALSPLPEVPPWTGEVSPAQR; listed as Homo sapiens)
HW (heart weight) ([1]; 25 ng/kg/day s.c.): 1304 ± 41.4 mg | HW/BW ([1]; 25 ng/kg/day s.c.): 3.68 ± 0.07 | HW (heart weight) [1, 4]: 1365 ± 30.1 mg | HW/BW [1, 4]: 3.97 ± 0.1 mg/g | increase in HW/BW relative to NT rats ([1]; HT Dahl/SS rats, 25 ng/kg/day s.c., FIG. 5B): no increase | percentage increase in heart weight/body weight compared to NT ([1]; HT Dahl/SS rats, 50 or 100 ng/kg/day s.c. (pooled), FIG. 1B): less than 5% | increase of interstitial LV fibrosis compared to NT rats [2]: 14% | increase of perivascular LV fibrosis compared to NT rats [2]: 35% | SMAD2 phosphorylation (nuclear) compared to untreated HT rats (SMAD2): significantly lower | ANGII-induced hypertrophy as indexed by [3H]-leucine incorporation ([3]; 37.5 ng/ml proANP31-67, 1 μM ANG II): prevented | ANGII-induced hypertrophy as indexed by [3H]-leucine incorporation ([3]; 150 ng/ml proANP31-67, 1 μM ANG II): prevented
